Laboratory results as given in PubChem BioAssay (NCI).
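Exposure lasted 48 hours, with cells grown in 96-well plates and compounds tested at five concentrations. GI50 = concentration required for 50% inhibition of growth. At the TGI there is no net growth.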

How the values were obtained:
Test in all cases: NCI tumour cell line growth inhibition, 48 h
NCI-H522 lung = test system: NCI-H522 lung
SN12C renal = test system: SN12C renal
DU-145 prostate = test system: DU-145 prostate
OVCAR-4 ovarian = test system: OVCAR-4 ovarian
BT-549 breast = test system: BT-549 breast
NCI-H460 lung = test system: NCI-H460 lung
A498 renal = test system: A498 renal
RPMI-8226 leukemia = test system: RPMI-8226 leukemia
MOLT-4 leukemia = test system: MOLT-4 leukemia
UACC-62 melanoma = test system: UACC-62 melanoma

Cc1nc2sc3cccc(Cl)c3n2c(=O)c1N=Nc1ccc(Cl)cc1
TGI (NCI-H522 lung): > 100 µM
TGI (SN12C renal): > 100 µM
TGI (DU-145 prostate): > 100 µM
TGI (OVCAR-4 ovarian): > 100 µM
TGI (BT-549 breast): > 100 µM
TGI (NCI-H460 lung): > 100 µM
TGI (A498 renal): 67.6 µM
TGI (RPMI-8226 leukemia): > 100 µM
TGI (MOLT-4 leukemia): > 100 µM

CCN(CC)CCNc1ccc2ncn3c4ccc(O)cc4c(=O)c1c23
TGI (NCI-H522 lung): 15.7 µM
TGI (SN12C renal): 15.1 µM
TGI (DU-145 prostate): 18.4 µM
TGI (OVCAR-4 ovarian): 9.81 µM
TGI (BT-549 breast): 24.9 µM
TGI (NCI-H460 lung): 12.2 µM
TGI (A498 renal): 13.7 µM
TGI (RPMI-8226 leukemia): 11.1 µM
TGI (MOLT-4 leukemia): 3.59 µM
TGI (UACC-62 melanoma): 11.8 µM

CCOC(=O)c1c2c(n(-c3ccc(C)cc3)c1C)-c1ccccc1C(=O)C2(C(=O)OCC)C(=O)OCC
TGI (NCI-H522 lung): 79.9 µM
TGI (SN12C renal): > 100 µM
TGI (DU-145 prostate): > 100 µM
TGI (OVCAR-4 ovarian): > 100 µM
TGI (BT-549 breast): 55.2 µM
TGI (NCI-H460 lung): 98.5 µM
TGI (A498 renal): 97.3 µM
TGI (RPMI-8226 leukemia): 57.5 µM
TGI (MOLT-4 leukemia): > 4.64 µM
TGI (UACC-62 melanoma): > 91.8 µM

O=C(CSCC(=O)N/N=C/c1cccc(O)c1)N/N=C/c1cccc(O)c1
TGI (NCI-H522 lung): > 100 µM
TGI (SN12C renal): > 100 µM
TGI (DU-145 prostate): > 100 µM
TGI (OVCAR-4 ovarian): > 100 µM
TGI (NCI-H460 lung): > 100 µM
TGI (A498 renal): > 100 µM
TGI (RPMI-8226 leukemia): > 100 µM
TGI (MOLT-4 leukemia): > 100 µM
TGI (UACC-62 melanoma): > 100 µM

COC(=O)c1cc2c(cc1Cl)Sc1nnc(Nc3ccccc3)n1S2(=O)=O
TGI (NCI-H522 lung): 3.26 µM
TGI (SN12C renal): 21.8 µM
TGI (DU-145 prostate): 3.87 µM
TGI (OVCAR-4 ovarian): 8.97 µM
TGI (BT-549 breast): 14.5 µM
TGI (NCI-H460 lung): 23.8 µM
TGI (A498 renal): 12.9 µM
TGI (RPMI-8226 leukemia): 4.02 µM
TGI (MOLT-4 leukemia): 6.34 µM
TGI (UACC-62 melanoma): 14.6 µM

O=S(=O)(/N=C(\NO)Nc1ccc(Cl)cc1)c1cc(C(F)(F)F)cc(C(F)(F)F)c1
TGI (NCI-H522 lung): 40.4 µM
TGI (SN12C renal): 32.1 µM
TGI (DU-145 prostate): 44.1 µM
TGI (OVCAR-4 ovarian): 31.6 µM
TGI (BT-549 breast): 33.3 µM
TGI (NCI-H460 lung): 73.6 µM
TGI (MOLT-4 leukemia): 70.2 µM
TGI (UACC-62 melanoma): 30.7 µM

C=CCNC(=O)C(C)C1CCC2(C)C=CC(=O)C(C)=C2C1O (stereo not drawn)
TGI (NCI-H522 lung): > 100 µM
TGI (SN12C renal): > 100 µM
TGI (OVCAR-4 ovarian): > 100 µM
TGI (NCI-H460 lung): > 100 µM
TGI (A498 renal): > 100 µM
TGI (RPMI-8226 leukemia): > 100 µM
TGI (MOLT-4 leukemia): > 100 µM
TGI (UACC-62 melanoma): > 100 µM

O=[N+]([O-])c1ccc(/C=N/Nc2nc3ccccc3[nH]2)o1
TGI (NCI-H522 lung): 41.2 µM
TGI (SN12C renal): 32.6 µM
TGI (DU-145 prostate): 27.1 µM
TGI (OVCAR-4 ovarian): 21.6 µM
TGI (BT-549 breast): 31.1 µM
TGI (NCI-H460 lung): > 100 µM
TGI (RPMI-8226 leukemia): 15.3 µM
TGI (MOLT-4 leukemia): 27.3 µM

CN1C(=O)CC(=O)N1/C(=C/c1ccccc1)c1ccccc1
TGI (SN12C renal): > 100 µM
TGI (DU-145 prostate): > 100 µM
TGI (OVCAR-4 ovarian): > 100 µM
TGI (BT-549 breast): > 100 µM
TGI (NCI-H460 lung): > 100 µM
TGI (RPMI-8226 leukemia): > 100 µM
TGI (MOLT-4 leukemia): 55.5 µM
TGI (UACC-62 melanoma): > 100 µM

O=C1c2cc(O)c(O)cc2O[C@H](c2ccc(O)c(O)c2)[C@H]1O
TGI (NCI-H522 lung): > 100 µM
TGI (SN12C renal): > 100 µM
TGI (DU-145 prostate): > 100 µM
TGI (BT-549 breast): > 100 µM
TGI (NCI-H460 lung): > 100 µM
TGI (A498 renal): > 100 µM
TGI (RPMI-8226 leukemia): > 100 µM
TGI (MOLT-4 leukemia): > 100 µM
TGI (UACC-62 melanoma): > 100 µM

Oc1ccc(C(=C(Br)c2ccccc2)c2ccc(O)cc2)cc1
TGI (NCI-H522 lung): 17.6 µM
TGI (SN12C renal): 18.9 µM
TGI (DU-145 prostate): 25.7 µM
TGI (BT-549 breast): 15.4 µM
TGI (NCI-H460 lung): 31.6 µM
TGI (A498 renal): 34.2 µM
TGI (RPMI-8226 leukemia): 96.1 µM
TGI (MOLT-4 leukemia): 40.5 µM
TGI (UACC-62 melanoma): 23.1 µM

CC(SC(=S)N1CCOCC1)C(=O)Nc1nnc(-c2ccc(Cl)cc2)o1 (stereo not drawn)
TGI (SN12C renal): > 100 µM
TGI (DU-145 prostate): > 100 µM
TGI (OVCAR-4 ovarian): > 100 µM
TGI (BT-549 breast): > 100 µM
TGI (NCI-H460 lung): > 100 µM
TGI (A498 renal): > 100 µM
TGI (RPMI-8226 leukemia): 66.3 µM
TGI (MOLT-4 leukemia): > 100 µM
TGI (UACC-62 melanoma): > 100 µM

C=C(C#N)C(=O)OCC(CC)CC.C=C(C#N)C(=O)OCC(CC)CC.CS(C)=O.CS(C)=O.Nc1c(N=Nc2ccc(-c3ccc(N=Nc4cc(S(=O)(=O)[O-])c5ccccc5c4N)cc3)cc2)cc(S(=O)(=O)[O-])c2ccccc12.[Pt+2]
GI50 (NCI-H522 lung): 13.7 µM
TGI (NCI-H522 lung): 19.3 µM
GI50 (SN12C renal): 57.7 µM
TGI (SN12C renal): > 100 µM
GI50 (OVCAR-4 ovarian): 33.7 µM
TGI (OVCAR-4 ovarian): 99.2 µM
GI50 (NCI-H460 lung): 44.4 µM
TGI (NCI-H460 lung): > 100 µM
GI50 (A498 renal): > 71.4 µM
TGI (A498 renal): > 100 µM
GI50 (RPMI-8226 leukemia): 26.9 µM
TGI (RPMI-8226 leukemia): > 80.8 µM
GI50 (MOLT-4 leukemia): 27.1 µM
TGI (MOLT-4 leukemia): > 91.3 µM
GI50 (UACC-62 melanoma): 36.8 µM
TGI (UACC-62 melanoma): 97.4 µM

Cc1ccc(S(=O)(=O)OC2CC(C(C)(C)C)CCC2c2ccccc2)cc1 (stereo not drawn)
TGI (SN12C renal): > 100 µM
TGI (DU-145 prostate): > 100 µM
TGI (OVCAR-4 ovarian): > 100 µM
TGI (BT-549 breast): > 100 µM
TGI (NCI-H460 lung): > 100 µM
TGI (A498 renal): > 100 µM
TGI (RPMI-8226 leukemia): > 100 µM
TGI (MOLT-4 leukemia): > 100 µM
TGI (UACC-62 melanoma): > 100 µM

COc1ccc(OC)c2sc(N3C(=O)/C(=C/c4cccc(Oc5ccccc5)c4)N=C3c3ccccc3)nc12
TGI (NCI-H522 lung): > 100 µM
TGI (SN12C renal): > 100 µM
TGI (DU-145 prostate): > 100 µM
TGI (OVCAR-4 ovarian): > 100 µM
TGI (BT-549 breast): > 100 µM
TGI (NCI-H460 lung): > 100 µM
TGI (A498 renal): > 100 µM
TGI (RPMI-8226 leukemia): > 100 µM
TGI (MOLT-4 leukemia): > 100 µM
TGI (UACC-62 melanoma): > 100 µM

COc1ccc2nc3c(c(N)c2c1)C1CCC3C1(C)C (stereo not drawn)
TGI (NCI-H522 lung): > 100 µM
TGI (SN12C renal): > 100 µM
TGI (DU-145 prostate): > 100 µM
TGI (OVCAR-4 ovarian): > 100 µM
TGI (BT-549 breast): > 100 µM
TGI (NCI-H460 lung): > 100 µM
TGI (A498 renal): 70.7 µM
TGI (RPMI-8226 leukemia): 58.7 µM
TGI (MOLT-4 leukemia): > 100 µM
TGI (UACC-62 melanoma): 58 µM

O=C1c2cc3c(cc2-c2c1c1ccc(Cl)cc1c(=O)n2C[C@H](O)CO)OCO3
GI50 (NCI-H522 lung): 0.0422 µM
TGI (NCI-H522 lung): 1.82 µM
GI50 (DU-145 prostate): 0.0323 µM
TGI (DU-145 prostate): 1.08 µM
GI50 (A498 renal): 0.0387 µM
TGI (A498 renal): 0.16 µM
GI50 (RPMI-8226 leukemia): 0.0429 µM
TGI (RPMI-8226 leukemia): 0.54 µM
GI50 (MOLT-4 leukemia): < 0.01 µM
TGI (MOLT-4 leukemia): 12.4 µM
GI50 (UACC-62 melanoma): 0.0122 µM
TGI (UACC-62 melanoma): 0.122 µM

Cc1ccc(S(=O)(=O)N(CC(O)COc2ccccc2)c2c(F)cccc2F)cc1 (stereo not drawn)
TGI (SN12C renal): 47.8 µM
TGI (DU-145 prostate): > 100 µM
TGI (OVCAR-4 ovarian): 31.7 µM
TGI (NCI-H460 lung): 31.6 µM
TGI (A498 renal): 38.8 µM
TGI (RPMI-8226 leukemia): 34 µM
TGI (MOLT-4 leukemia): > 100 µM
TGI (UACC-62 melanoma): 36.3 µM

CSc1nncc(-c2cc3c(c(SC)n2)CCCC3)n1
TGI (NCI-H522 lung): > 100 µM
TGI (SN12C renal): > 100 µM
TGI (DU-145 prostate): > 100 µM
TGI (OVCAR-4 ovarian): > 100 µM
TGI (BT-549 breast): > 100 µM
TGI (NCI-H460 lung): > 100 µM
TGI (A498 renal): > 100 µM
TGI (RPMI-8226 leukemia): > 100 µM
TGI (MOLT-4 leukemia): > 100 µM
TGI (UACC-62 melanoma): > 100 µM

O=c1[nH]c2[nH]c(=S)[nH]c(=S)c2[nH]1
TGI (NCI-H522 lung): > 100 µM
TGI (SN12C renal): > 100 µM
TGI (OVCAR-4 ovarian): > 100 µM
TGI (BT-549 breast): > 100 µM
TGI (NCI-H460 lung): > 100 µM
TGI (A498 renal): > 100 µM
TGI (RPMI-8226 leukemia): > 100 µM
TGI (MOLT-4 leukemia): > 100 µM
TGI (UACC-62 melanoma): > 100 µM

Cc1cccc2sc(NC(=O)NS(=O)(=O)n3cnc4ccccc43)nc12
TGI (NCI-H522 lung): 62.9 µM
TGI (SN12C renal): > 100 µM
TGI (DU-145 prostate): > 100 µM
TGI (OVCAR-4 ovarian): > 100 µM
TGI (BT-549 breast): 59.9 µM
TGI (NCI-H460 lung): > 100 µM
TGI (A498 renal): 72.3 µM
TGI (RPMI-8226 leukemia): 84.3 µM
TGI (MOLT-4 leukemia): 88 µM
TGI (UACC-62 melanoma): 34.3 µM

O=C1C(Cl)N(c2ccccc2Cl)C1c1c[nH]c2ccccc12 (stereo not drawn)
TGI (NCI-H522 lung): > 100 µM
TGI (SN12C renal): > 100 µM
TGI (OVCAR-4 ovarian): > 100 µM
TGI (NCI-H460 lung): > 100 µM
TGI (RPMI-8226 leukemia): > 100 µM
TGI (MOLT-4 leukemia): > 100 µM
TGI (UACC-62 melanoma): > 100 µM
